Measurements taken from patent publication US11370774B2, “Substituted benzofuran, benzopyrrole, benzothiophene, and structurally related complement inhibitors” (BioCryst Pharmaceuticals, Inc., priority 2018, dated 2022).

Each compound was assayed against Factor D (Homo sapiens (Human), UniProt P00746) (assay: Factor D esterolytic assay (Z-Lys-SBzl substrate, DTNB, 405 nm)). Details: Z-Lys-SBzl 1.29 mM, pH 7.5, 10% DMSO, tested a minimum of three times, read-out: Measured Ki (IC50) Value for Compounds: IC50.
Type: biochemical
Method in brief: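 Human Factor D ([…]) with 1.29 mM Z-Lys-SBzl in 100 mM HEPES, 500 mM NaCl, pH 7.5, 10% DMSO; substrate added immediately or after room-temperature preincubation. Released thiol reacted with DTNB, rate followed at 405 nm for 600 sec, 690 nm background subtracted. IC50 from percent inhibition versus uninhibited rate, n≥3.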

Sequence of Factor D (P00746 26-253): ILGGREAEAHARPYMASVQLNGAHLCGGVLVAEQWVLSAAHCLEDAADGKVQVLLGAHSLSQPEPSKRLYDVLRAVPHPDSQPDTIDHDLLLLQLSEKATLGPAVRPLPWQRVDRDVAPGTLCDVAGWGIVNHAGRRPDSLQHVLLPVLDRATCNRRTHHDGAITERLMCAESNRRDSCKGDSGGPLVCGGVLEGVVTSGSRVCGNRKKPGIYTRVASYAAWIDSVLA

| SMILES | IC50 [nM] |
| --- | --- |
| NCc1cccc(-c2cc(COc3ccccc3CC(=O)O)cc3occc23)c1 [Compound 115f, 2-(2-((4-(3-(aminomethyl)phenyl)benzofuran-6-yl)methoxy)phenyl)acetic acid] | < 1000 |
| COCc1cc2cc(COc3cc(OC)ccc3CC(=O)O)cc(-c3cccc(CN)c3)c2o1 [Compound 466c, 2-(2-((7-(3-(aminomethyl)phenyl)-2-(methoxymethyl)benzofuran-5-yl)methoxy)-4-methoxyphenyl)acetic acid] | < 1000 |
| NCc1cccc(-c2cc(COc3ccccc3CC(=O)O)cc3[nH]ncc23)c1F [Compound 124g, 2-(2-((4-(3-(aminomethyl)-2-fluorophenyl)-1H-indazol-6-yl)methoxy)phenyl)acetic acid] | < 1000 |
| CC(C)S(=O)(=O)n1ccc2c(-c3cccc(CN)c3)cc(COc3ccccc3CC(=O)O)cc21 [Compound 228e, 2-(2-((4-(3-(aminomethyl)phenyl)-1-(isopropylsulfonyl)-1H-indol-6-yl)methoxy)phenyl)acetic acid] | < 1000 |
| NC(CF)c1cccc(-c2cc(COc3ccccc3CC(=O)O)cc3ccoc23)c1 (stereo not drawn) [Compound 186c, 2-(2-((7-(3-(1-amino-2-fluoroethyl)phenyl)benzofuran-5-yl)methoxy)phenyl)acetic acid] | < 1000 |
| NCc1cccc(-c2cc(COc3ccccc3CC(=O)O)cc3c2ccn3S(=O)(=O)C2CC2)c1 [Compound 212e, 2-(2-((4-(3-(aminomethyl)phenyl)-1-(cyclopropylsulfonyl)-1H-indol-6-yl)methoxy)phenyl)acetic acid] | < 1000 |
| NCc1cccc(-c2cc(COc3cc(N)ccc3CC(=O)O)cc3ccoc23)c1 [Compound 197c, 2-(4-amino-2-((7-(3-(aminomethyl)phenyl)benzofuran-5-yl)methoxy)phenyl)acetic acid] | < 1000 |
| NCc1cccc(-c2cc(COc3ccccc3CC(=O)O)cc3cc(CCO)oc23)c1 [Compound 178g, 2-(2-((7-(3-(aminomethyl)phenyl)-2-(2-hydroxyethyl)benzofuran-5-yl)methoxy)phenyl)acetic acid] | < 1000 |
| N#Cc1ccc(CC(=O)O)c(OCc2cc(-c3cccc(CN)c3)c3occc3c2)c1 [Compound 237b, 2-(2-((7-(3-(aminomethyl)phenyl)benzofuran-5-yl)methoxy)-4-cyanophenyl)acetic acid] | < 1000 |
| NCc1cc(-c2cc(COc3cc(F)ccc3CC(=O)O)cc3cc(F)oc23)ccn1 [Compound 523b, 2-(2-((7-(2-(aminomethyl)pyridin-4-yl)-2-fluorobenzofuran-5-yl)methoxy)-4-fluorophenyl)acetic acid] | < 1000 |
| Cc1ccc(CC(=O)O)c(OCc2cc(-c3cccc(CN)c3F)c3occc3c2F)c1 [Compound 348b, 2-(2-((7-(3-(aminomethyl)-2-fluorophenyl)-4-fluorobenzofuran-5-yl)methoxy)-4-methylphenyl)acetic acid] | < 1000 |
| Cc1noc2c(-c3ccnc(CN)c3)cc(COc3ccccc3CC(=O)O)cc12 [Compound 268h, 2-(2-((7-(2-(aminomethyl)pyridin-4-yl)-3-methylbenzo[d]isoxazol-5-yl)methoxy)phenyl)acetic acid] | < 1000 |
| Cc1ccc(CC(=O)O)c(OCc2cc(-c3ccnc(CN)c3)c3oc(F)cc3c2)c1 [Compound 526b, 2-(2-((7-(2-(aminomethyl)pyridin-4-yl)-2-fluorobenzofuran-5-yl)methoxy)-4-methylphenyl)acetic acid] | < 1000 |
| COc1ccc(C(SC)C(=O)O)c(OCc2cc(-c3cccc(CN)c3)c3occc3c2)c1 (stereo not drawn) [Compound 321f, 2-(2-((7-(3-(aminomethyl)phenyl)benzofuran-5-yl)methoxy)-4-methoxyphenyl)-2-(methylthio)acetic acid] | < 1000 |
| NCc1cccc(-c2nc(C(=O)Nc3ccccc3CC(=O)O)nc3c2ccn3CC2CC2)c1 [Compound 16i, 2-(2-(4-(3-(aminomethyl)phenyl)-7-(cyclopropylmethyl)-7H-pyrrolo[2,3-d]pyrimidine-2-carboxamido)phenyl)acetic acid] | < 1000 |
| CC(C)n1ccc2c(-c3ccnc(CN)c3F)cc(COc3ccc(F)cc3CC(=O)O)cc21 [Compound 513c, 2-(2-((4-(2-(aminomethyl)-3-fluoropyridin-4-yl)-1-isopropyl-1H-indol-6-yl)methoxy)-5-fluorophenyl)acetic acid] | < 1000 |
| CCc1ccc(CC(=O)O)c(OCc2cc(-c3ccnc(CN)c3)c3occc3c2)c1 [Compound 371c, 2-(2-((7-(2-(aminomethyl)pyridin-4-yl)benzofuran-5-yl)methoxy)-4-ethylphenyl)acetic acid] | < 1000 |
| NCc1cc(-c2cc(COc3ccccc3CC(=O)O)c(F)c3ccoc23)ccn1 [Compound 172b, 2-(2-((7-(2-(aminomethyl)pyridin-4-yl)-4-fluorobenzofuran-5-yl)methoxy)phenyl)acetic acid] | < 1000 |

| SMILES | IC50 [nM] |
| --- | --- |
| CC(C)Cc1cc2cc(COc3ccccc3CC(=O)O)cc(-c3cccc(CN)c3)c2o1 [Compound 201b, 2-(2-((7-(3-(aminomethyl)phenyl)-2-isobutylbenzofuran-5-yl)methoxy)phenyl)acetic acid] | < 1000 |
| Cc1ccc(CC(=O)O)c(OCc2cc(-c3ccnc(CN)c3F)c3oc(F)cc3c2)c1 [Compound 525c, 2-(2-((7-(2-(aminomethyl)-3-fluoropyridin-4-yl)-2-fluorobenzofuran-5-yl)methoxy)-4-methylphenyl)acetic acid] | < 1000 |
| NCc1nccc(-c2cc(COc3ccccc3CC(=O)O)cc3cc(C(F)(F)F)oc23)c1F [Compound 240d, 2-(2-((7-(2-(aminomethyl)-3-fluoropyridin-4-yl)-2-(trifluoromethyl)benzofuran-5-yl)methoxy)phenyl)acetic acid] | < 1000 |
| Cc1cccc(CC(=O)O)c1NC(=O)c1cc(-c2cccc(CN)c2)c2occc2c1 [Compound 165f, 2-(2-(7-(3-(aminomethyl)phenyl)benzofuran-5-carboxamido)-3-methylphenyl)acetic acid] | < 1000 |
| CC(=O)c1ccc(OCc2cc(-c3cccc(CN)c3)c3occc3c2)c(CC(=O)O)c1 [Compound 330c, 2-(5-acetyl-2-((7-(3-(aminomethyl)phenyl)benzofuran-5-yl)methoxy)phenyl)acetic acid] | < 1000 |
| NCc1cccc(-c2cc(COc3cc(-c4ccccc4)ccc3CC(=O)O)cc3ccoc23)c1 [Compound 263c, 2-(3-((7-(3-(aminomethyl)phenyl)benzofuran-5-yl)methoxy)-[1,1′-biphenyl]-4-yl)acetic acid] | < 1000 |
| NCc1cccc(-c2nc(C(=O)Nc3ccccc3CC(=O)O)cc3ccoc23)c1 [Compound 28d, 2-(2-(7-(3-(aminomethyl)phenyl)furo[2,3-c]pyridine-5-carboxamido)phenyl)acetic acid] | < 1000 |
| Cc1cc2c(-c3cccc(CN)c3F)cc(COc3ccccc3CC(=O)O)cc2o1 [Compound 409f, 2-(2-((4-(3-(aminomethyl)-2-fluorophenyl)-2-methylbenzofuran-6-yl)methoxy)phenyl)acetic acid] | < 1000 |
| NCc1ccc(-c2cc(COc3ccccc3CC(=O)O)cc3ccoc23)o1 [Compound 207c, 2-(2-((7-(5-(aminomethyl)furan-2-yl)benzofuran-5-yl)methoxy)phenyl)acetic acid] | < 1000 |
| NCc1cccc(-c2cc(COc3ccccc3CC(=O)O)cc3cc(Cc4ccccc4)oc23)c1 [Compound 377e, 2-(2-((7-(3-(aminomethyl)phenyl)-2-benzylbenzofuran-5-yl)methoxy)phenyl)acetic acid] | < 1000 |
| NCc1cccc(-c2cc(COc3cc(F)ccc3CC(=O)O)cc3c(C(F)(F)F)coc23)c1F [Compound 487b, 2-(2-((7-(3-(aminomethyl)-2-fluorophenyl)-3-(trifluoromethyl)benzofuran-5-yl)methoxy)-4-fluorophenyl)acetic acid] | < 1000 |
| NCc1cccc(-c2cc(COc3ccc(F)cc3CC(=O)O)c(F)c3ccoc23)c1 [Compound 386c, 2-(2-((7-(3-(aminomethyl)phenyl)-4-fluorobenzofuran-5-yl)methoxy)-5-fluorophenyl)acetic acid] | < 1000 |
| NCc1cccc(-c2c(F)c(COc3ccccc3CC(=O)O)cc3ccoc23)c1F [Compound 516c, 2-(2-((7-(3-(aminomethyl)-2-fluorophenyl)-6-fluorobenzofuran-5-yl)methoxy)phenyl)acetic acid] | < 1000 |
| NCc1nccc(-c2cc(COc3ccccc3CC(=O)O)cc3cc(F)oc23)c1F [Compound 300c, 2-(2-((7-(2-(aminomethyl)-3-fluoropyridin-4-yl)-2-fluorobenzofuran-5-yl)methoxy)phenyl)acetic acid] | < 1000 |
| NC(=O)c1ccc(CC(=O)O)c(OCc2cc(-c3cccc(C(N)CF)c3)c3occc3c2)c1 (single isomer, unassigned; (+)) [Compound 436c, (+)-2-(2-((7-(3-(1-amino-2-fluoroethyl)phenyl)benzofuran-5-yl)methoxy)-4-carbamoylphenyl)acetic acid] | < 1000 |
| Cc1cc2cc(COc3cc(C(N)=O)ccc3CC(=O)O)cc(-c3cccc(CN)c3)c2o1 [Compound 429c, 2-(2-((7-(3-(aminomethyl)phenyl)-2-methylbenzofuran-5-yl)methoxy)-4-carbamoylphenyl)acetic acid] | < 1000 |
| Cc1ccc(CC(=O)O)c(OCc2cc(-c3cccc(CN)c3F)c3oc(F)cc3c2)c1 [Compound 524b, 2-(2-((7-(3-(aminomethyl)-2-fluorophenyl)-2-fluorobenzofuran-5-yl)methoxy)-4-methylphenyl)acetic acid] | < 1000 |
| Cc1cc(-c2ccc(CC(=O)O)c(OCc3cc(-c4cccc(CN)c4)c4occc4c3)c2)cnc1F [Compound 322c, 2-(2-((7-(3-(aminomethyl)phenyl)benzofuran-5-yl)methoxy)-4-(6-fluoro-5-methylpyridin-3-yl)phenyl)acetic acid] | < 1000 |
